Read-outs that look alike come from different tables or passages of the source. Marks after values point to notes of the source that are not given here.
Tests used:
[1] = tested on: immature erythrocytes (reticulocytes)
Method: The morbidity, the mortality, the weight of the animals and the clinical parameters (temperature, skin, hair, eyes, mucous membranes, secretions and excretions, respiratory and neurological function, gait and posture) were noted. 36 h to 48 h after the second treatment, the blood of the animals was collected and analyzed in flow cytometry (toxicity control: reduction of the proportion of immature erythrocytes (CD-71-positive). The proportion of micro-nucleated immature erythrocytes (reticulocytes) was evaluated on 4,000 observations per blood sample. Each rat population (n=10) for each tested substance represents 40,000 observations (Table 5).

HSV-1 [2] = experiment: Model 1: Mixture 1 on cells infected with HSV-1, qPCR of viral genome in BHK-21; assay type: cell-based, Herpes simplex 1
Source text: (§1) Symp. Quant. […] Model 1:

HSV-1 [3] = experiment: Model 2: Mixture 1 on cells not yet infected with HSV-1, qPCR of viral genome in BHK-21; assay type: cell-based, Herpes simplex 1
Source text: as §1

HSV-1 [4] = experiment: Model 3: Mixture 1 on cells not yet infected and on free HSV-1, qPCR of viral genome in BHK-21; assay type: cell-based, Herpes simplex 1
Source text: as §1

HSV-1 [5] = experiment: Model 4: Mixture 1 on HSV-1 before infection, qPCR of viral genome in BHK-21; assay type: cell-based, Herpes simplex 1
Source text: as §1

BHK-21 line [6] = experiment: Model 1: cytotoxicity on the BHK-21 line, qPCR of 18S gene; assay type: cell-based; conditions: ACV 1 mg/L, 8 h post-contact of 2 mins
Source text: as §1

BHK-21 line [7] = experiment: Model 2: cytotoxicity on the BHK-21 line, qPCR of 18S gene; assay type: cell-based; conditions: ACV 1 mg/L, 8 h post-contact of 2 mins
Source text: as §1

BHK-21 line [8] = experiment: Model 3: cytotoxicity on the BHK-21 line, qPCR of 18S gene; assay type: cell-based; conditions: ACV 1 mg/L, 8 h post-contact of 2 mins
Source text: as §1

BHK-21 line [9] = experiment: Model 4: cytotoxicity on the BHK-21 line, qPCR of 18S gene; assay type: cell-based; conditions: ACV 10^3 mg/L, 8 h post-contact of 2 mins
Source text: as §1

[10] = tested on: chorioallantoic membrane of a fertilized hen egg; experiment: Ocular irritation test HET-CAM
Method: The ocular irritation test used was the substitution test HET-CAM (Hen's Egg Test—Chorioallantoic Membrane), published in the Official Journal dated 26 Dec. 1996. It is recommended by ICCVAM.
At 0.5, 2 and 5 mins post-contact, the three following criteria are observed and scored: hemorrhage, coagulation and hyperemia.

[11] = 100 mg/kg intraperitoneal, female
[12] = 100 mg/kg intraperitoneal, male
[13] = 150 mg/kg intraperitoneal, female
[14] = 150 mg/kg intraperitoneal, male
[15] = control Line + (PBS + HSV), ACV 1 mg/L, 8 h post-contact of 2 mins

## CCOS(C)(=O)=O [Methanesulfonate, ethyl methanesulfonate]
[1]; [11]
  Micro-nucleated reticulocytes (%): 0.48 ± 0.16 %
  Reticulocytes (%): 1.86 ± 0.25%
[1]; [12]
  Micro-nucleated reticulocytes (%): 0.68 ± 0.35 %
  Reticulocytes (%): 1.41 ± 0.32%
[1]; [13]
  Micro-nucleated reticulocytes (%): 0.59 ± 0.26 %
  Reticulocytes (%): 0.45 ± 0.33%
[1]; [14]
  Micro-nucleated reticulocytes (%): 0.81 ± 0.48 %
  Reticulocytes (%): 1.33 ± 0.34%

## Nc1nc2c(ncn2COCCO)c(=O)[nH]1 [ACV, acyclovir]
HSV-1 [2]; contact 2 min, ACV 10^3 μg/L
  Reduction of the HSV-1 replication at t 8 h: −12%
HSV-1 [2]; [15]
  HSV (%), replication of HSV-1 by qPCR: 76 (1) %
HSV-1 [3]; contact 2 min, ACV 10^3 μg/L
  Reduction of the HSV-1 replication at t 8 h: −1%
HSV-1 [3]; [15]
  HSV (%), replication of HSV-1 by qPCR: 61 (1) %
HSV-1 [4]; contact 2 min, ACV 10^3 μg/L
  Reduction of the HSV-1 replication at t 8 h: −6%
HSV-1 [4]; [15]
  HSV (%), replication of HSV-1 by qPCR: 86 (1) %
HSV-1 [5]; contact 2 min, [ACV]: 1 g/L
  Reduction of the HSV-1 replication at t 8 h: −52^# %
HSV-1 [5]; control Line + (PBS + HSV), ACV 10^3 mg/L, 8 h post-contact of 2 mins
  HSV (%), replication of HSV-1 by qPCR: 54%
BHK-21 line [6]; control Line + (PBS + HSV)
  18S (%), multiplication of the BHK-21 line by qPCR: 118 (1) %
BHK-21 line [6]; control Line + (PBS − HSV)
  18S (%), multiplication of the BHK-21 line by qPCR: 108 (1) %
BHK-21 line [7]; control Line + (PBS + HSV)
  18S (%), multiplication of the BHK-21 line by qPCR: 62 (1) %
BHK-21 line [7]; control Line + (PBS − HSV)
  18S (%), multiplication of the BHK-21 line by qPCR: 57 (1) %
BHK-21 line [8]; control Line + (PBS + HSV)
  18S (%), multiplication of the BHK-21 line by qPCR: 92 (1) %
BHK-21 line [8]; control Line + (PBS − HSV)
  18S (%), multiplication of the BHK-21 line by qPCR: 111 (1) %
BHK-21 line [9]; control Line + (PBS + HSV)
  18S (%), multiplication of the BHK-21 line by qPCR: 111%
BHK-21 line [9]; control Line + (PBS − HSV)
  18S (%), multiplication of the BHK-21 line by qPCR: 97%

## O=P1(N(CCCl)CCCl)NCCCO1 (stereo not shown) [Cyclophosphamide, cyclophosphamide]
[1]; 5 mg/kg intravenous, female
  Micro-nucleated reticulocytes (%): 0.40 ± 0.13%
  Reticulocytes (%): 2.41 ± 0.54%
[1]; 5 mg/kg intravenous, male
  Micro-nucleated reticulocytes (%): 0.56 ± 0.17%
  Reticulocytes (%): 3.99 ± 0.49%
[1]; 10 mg/kg intravenous, female
  Micro-nucleated reticulocytes (%): 1.02 ± 0.26 %
  Reticulocytes (%): 1.30 ± 0.43%
[1]; 10 mg/kg intravenous, male
  Micro-nucleated reticulocytes (%): 1.62 ± 0.29%
  Reticulocytes (%): 1.95 ± 0.59%

## [Na+].[OH-] [NaOH 0.1M, NaOH]
[10]
  IS of the positive substances of reference: 15±3

## CCCCCCCCCCCCOS(=O)(=O)[O-].[Na+] [1% SDS, sodium dodecyl sulfate]
[10]
  IS of the positive substances of reference: 10±2
